Data from patent US20240189304A1, “BET PROTEIN INHIBITORS AND USE THEREOF” (The Regents of the University of California, priority 2021, published 2024).
Values joined by “and” are separate entries in the source; they are usually repeats but may differ in a detail not shown here. Equal values may be shown once. Each block holds one compound with its values, some of them ahead of it.

Columns and labels:
[1] = target: Brd4 ET (Homo sapiens, UniProt O60885); conditions: peptide construct, read-out: binding affinity; cited from earlier work
[2] = test system: Molm-13 cells; conditions: seven days post transduction; cited from earlier work
[3] = test system: C4-2B MDVR cells; assay: C4-2B MDVR (enzalutamide resistant) cell growth, cell number; type: cell-based; conditions: for inhibition of cell growth (cell number): 5 μM
Protocol: (§1) Enzalutamide resistant C4-2B MDVR cells and darolutamide resistant C4-2B DaroR cells were treated with candidate compounds at 5 μM. BET (I-BET151; (R)-7-(3,5-dimethylisoxazol-4-yl)-8-methoxy-1-(1-(pyridin-2-yl)ethyl)-1,3-dihydro-2H-imidazo[4,5-c]quinolin-2-one; CAS RN 1300031-49-5) was used as the positive control at 5 μM. The cell number was determined. Only piperazine BET protein inhibitor 10 and the BET control inhibited both C4-2B MDVR and C4-2B DaroR cell growth at a concentration of 5 μM. Other compounds from the screen were not observed to effect cell growth under the test conditions.
C4-2B MDVR cells were treated with increasing doses of piperazine BET protein inhibitor 10 and compound 8 (8-(1-isopropyl-6-methyl-1H-pyrazolo[3,4-b]pyridine-5-carbonyl)-1,3-diazaspiro[4.5]decane-2,4-dione) as indicated. The cell number was determined after 3-day treatment.
(§2) C4-2B and C4-2B MDVR Cells were plated at 20,000 cells per well in 24-well plates and treated as indicated for 6 days. Total cell number was assessed by Coulter Counter. * indicates significant difference from control for each cell line, p<0.05.
C4-2B MDVR cells were plated at 20,000 cells per well in 24-well plates and treated for 5 days with the indicated compounds. The total cell number was determined and expressed as percentage of control. * indicates a significant difference from control, p<0.05.

[4] = test system: C4-2B cells; assay: C4-2B cell growth, total cell number by Coulter Counter; type: cell-based; conditions: 1-40 μM, 6 days
Protocol: as §2

[5] = test system: C4-2B MDVR cells; assay: Growth inhibition in combination with enzalutamide, coefficient of drug interaction; type: cell-based; conditions: for CDI: with enzalutamide; for CDI / CDI with Enzalutamide: C4-2B MDVR cells; for CDI with Enzalutamide: treated for 5 days; for 3 Day CDI / 5 Day CDI: with enzalutamide (MDV)
Protocol: C4-2B AbiR: abiraterone resistance; C4-2B ApaR: apalutamide resistance; C4-2B DaroR: darolutamide resistance; C4-2B MDVR: enzalutamide resistance.
Piperidine BET protein inhibitor 2 was also found to synergize with enzalutamide in inhibiting the growth of enzalutamide-resistant C4-2b MDVR cells, as shown in FIG. 6A and FIG. 6B.
Organoids generated from enzalutamide resistant LuCaP35CR PDX tumors were treated with either piperazine BET protein inhibitor 10 at concentrations as indicated (A) or in combination with enzalutamide 20 μM(C) for 7 days; representative organoids were imaged under the fluorescence microscope after stained by LIVE/DEAD Viability/Cytotoxicity Kit (Invitrogen MP03224). Organoid viability was measured using CellTiter Glo (Promega Catelog#G9681) for piperazine BET protein inhibitor 10 single treatment (B) and for combinational treatment with enzalutamide (D, E). […] Blue indicates synergy while red indicates antagonism between drugs. The coefficient of drug interaction (CDI) is calculated as follows: CDI=AB/(A×B). A is growth inhibition effect of treatment with the BET protein inhibitor. B is growth inhibition effect of enzalutamide treatment. AB is the growth inhibition effect of the combination treatment. […] The coefficient of drug interaction (CDI) of 20 μM enzalutamide with 0.5 μM BET protein inhibitor combination treatment were 0.97 and 0.91 respectively in LuCaP35CR organoids, evidencing a synergistic effect (CDI=0.4222, <1).
C4-2B MDVR […], and then total cell numbers were determined. * indicates significant difference from control and ** indicates significant difference between Enza drug treatment and the combination treatment; p<0.05.

[6] = test system: C4-2B DaroR cells; assay: C4-2B DaroR (darolutamide resistant) cell growth, cell number; type: cell-based; conditions: 5 μM
Protocol: as §1

[7] = test system: C4-2B DaroR cells; assay: Growth inhibition in combination with darolutamide, coefficient of drug interaction; type: cell-based; conditions: with darolutamide (Daro)
[8] = test system: LuCaP49 prostate cancer PDX; assay: LuCaP49 prostate cancer PDX tumor growth in mice; type: in vivo; conditions: 60 mg/kg, i.p., daily, 5 days/week
Protocol: Mice bearing tumors from LuCaP49 prostate cancer PDX were treated with BETi-10 (60 mg/kg, i.p.) daily, 5 days/week. Tumor volume were measured and relative fold changes were calculated compared to the day 0 treatment.

[9] = test system: C4-2B ApaR cells; assay: Growth inhibition in combination with apalutamide, coefficient of drug interaction; type: cell-based; conditions: with apalutamide (Apa)
[10] = target: T1, BRD4 (Homo sapiens, UniProt O60885); assay: Western blot of BRD4 expression in C4-2B MDVR cells; type: cell-based; conditions: increasing doses, 2 days
T1 construct: endogenous in cells; host or cells: C4-2B MDVR
Protocol: (§3) C4-2B MDVR cells were treated with piperazine BET protein inhibitor 10 and the I-BET151 control at increasing doses for 2 days. The cell lysates were subjected to Western blot analysis for BRD4, AR-FL, and cMYC expression. As shown here, both piperazine BET protein inhibitor 10 and I-BET151 inhibited BRD4, AR-FL, and cMYC protein expression.

[11] = test system: MYC signaling pathway; assay: Analysis of total RNA isolated from treated cells; type: cell-based; conditions: data not shown
[12] = test system: AR-FL; assay: Western blot of AR-FL expression in C4-2B MDVR cells; type: cell-based; conditions: increasing doses, 2 days
Protocol: as §3

[13] = test system: C4-2B AbiR cells; assay: Growth inhibition in combination with abiraterone, coefficient of drug interaction; type: cell-based; conditions: with abiraterone (Abi)
[14] = test system: cMYC; assay: cMYC expression in C4-2B MDVR cells; type: cell-based; conditions: increasing doses, 2 days, Western blot
Protocol: as §3

Compound: 17 amino acid region TWRVQRSQNPLKIRKTR(389′-405′) (SEQ ID NO:1) of MLV IN, minimal binding region for Brd4 ET [EBM]
Kd [1]: ~160 nM | reduction in cellular proliferation compared to vector control cells [2]: ~10 fold

Compound: CC(C)n1nccc1NC(=O)C1CCCN(C(=O)c2ccc(Cl)c(Cl)c2)C1 (stereo not drawn) [Compound 2, 1-(3,4-dichlorobenzoyl)-N-(1-isopropyl-1H-pyrazol-5-yl)piperidine-3-carboxamide]
inhibition of cell growth (total cell number) ([3]; 1-40 μM, 6 days): inhibit the growth of C4-2B and C4-2B MDVR cells in a dose-dependent manner | inhibition of cell growth (total cell number) [4]: inhibit the growth of C4-2B and C4-2B MDVR cells in a dose-dependent manner | CDI ([5]; 3 Day, 10 μM 2): 0.751 | CDI ([5]; 3 Day, 20 μM 2): 0.8105 | CDI ([5]; 5 Day, 10 μM 2): 0.792 | CDI ([5]; 5 Day, 20 μM 2): 0.702

Compound: Cc1nc2c(cnn2C(C)C)cc1C(=O)C1CCC2(CC1)NC(=O)NC2=O (stereo not drawn) [Compound 8, 8-(1-isopropyl-6-methyl-1H-pyrazolo[3,4-b]pyridine-5-carbonyl)-1,3-diazaspiro[4.5]decane-2,4-dione]
growth inhibition at increasing doses ([3]; 3-day treatment): no growth inhibition was observed

BRD4 protein expression [10]: inhibited
Compound: O=C(Nc1cccc(C(=O)N2CCN(CCOc3ccc(Cl)cc3)CC2)c1)C1CCCO1 (stereo not drawn) [Compound 10, N-(3-(4-(2-(4-chlorophenoxy)ethyl)piperazine-1-carbonyl)phenyl)tetrahydrofuran-2-carboxamide]
inhibition of cell growth (cell number) [6]: inhibited | inhibition of cell growth (cell number) [3]: inhibited | growth inhibition at increasing doses ([3]; 3-day treatment): inhibited growth of C4-2B MDVR cells in a dose-dependent manner | IC50 ([3]; 72 h, 3-day treatment): 1700 to 2100 nM | 3 Day CDI ([7]; 1 μM (10)): 0.6607 | 5 Day CDI ([7]; 1 μM (10)): 0.4574 | 3 Day CDI ([7]; 2.5 μM (10)): 0.6111 | 5 Day CDI ([7]; 2.5 μM (10)): 0.38 and 0.3762 | tumor growth (tumor volume, relative fold change to day 0) [8]: inhibit the growth | 3 Day CDI ([9]; 1 μM (10)): 0.7981 | 5 Day CDI ([9]; 1 μM (10)): 0.639 | 3 Day CDI ([9]; 2.5 μM (10)): 0.7358 | 5 Day CDI ([9]; 2.5 μM (10)): 0.54 and 0.5381 | inhibition of the MYC signaling pathway [11]: inhibit the MYC signaling pathway | CDI with Enzalutamide [5]: 0.76 | 3 Day CDI ([5]; 1 μM (10)): 0.6791 | 5 Day CDI ([5]; 1 μM (10)): 0.3464 | 3 Day CDI ([5]; 2.5 μM (10)): 0.5693 | 5 Day CDI ([5]; 2.5 μM (10)): 0.26 and 0.2628 | AR-FL protein expression [12]: inhibited | 3 Day CDI ([13]; 1 μM (10)): 1.019 | 5 Day CDI ([13]; 1 μM (10)): 1.362 | 3 Day CDI ([13]; 2.5 μM (10)): 0.914 | 5 Day CDI ([13]; 2.5 μM (10)): 0.98 and 0.9835 | cMYC protein expression [14]: inhibited

Compound: O=C(Nc1cccc(C(=O)N2CCN(CCOc3ccc(Cl)cc3)CC2)c1)c1ccco1 [Compound 11, N-(3-(4-(2-(4-chlorophenoxy)ethyl)piperazine-1-carbonyl)phenyl)furan-2-carboxamide]
inhibition of the MYC signaling pathway [11]: inhibit the MYC signaling pathway | CDI with Enzalutamide [5]: 0.90

Compound: N[C@@H](Cc1c[nH]c2ccccc12)C(=O)Nc1cccc(C(=O)N2CCN(CCOc3ccc(Cl)cc3)CC2)c1 [Compound 12, (S)-2-Amino-N-(3-(4-(2-(4-chlorophenoxy)ethyl)piperazine-1-carbonyl)phenyl)-3-(1H-indol-3-yl)propenamide]
CDI with Enzalutamide [5]: 0.90

Compound: CC(C)(C)OC(=O)N[C@@H](Cc1c[nH]c2ccccc12)C(=O)Nc1cccc(C(=O)N2CCN(CCOc3ccc(Cl)cc3)CC2)c1 [Compound 13]
CDI with Enzalutamide [5]: 0.81

Compound: N[C@@H](Cc1c[nH]cn1)C(=O)Nc1cccc(C(=O)N2CCN(CCOc3ccc(Cl)cc3)CC2)c1 [Compound 14, (S)-2-Amino-N-(3-(4-(2-(4-chlorophenoxy)ethyl)piperazine-1-carbonyl)phenyl)-3-(1H-imidazol-4-yl)propenamide]
CDI with Enzalutamide [5]: 0.82

BRD4 protein expression [10]: inhibited
Compound: COc1cc2c(cc1-c1c(C)noc1C)ncc1[nH]c(=O)n([C@H](C)c3ccccn3)c12 [I-BET151, (R)-7-(3,5-dimethylisoxazol-4-yl)-8-methoxy-1-(1-(pyridin-2-yl)ethyl)-1,3-dihydro-2H-imidazo[4,5-c]quinolin-2-one, reference compound]
inhibition of cell growth (cell number) [6]: inhibited | inhibition of cell growth (cell number) [3]: inhibited | AR-FL protein expression [12]: inhibited | cMYC protein expression [14]: inhibited
